# Laboratory results taken from PubChem BioAssay AID504726 (Broad Institute, 2011).
# Activity calls are given as the source filed them.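 The calls were made as follows: active = fitted half-maximal concentration for a cytotoxic signal drop no higher than ten times the top valid dose tested; inconclusive = flat curve between -70 and -30 percent, or an unreliable fit; inactive = flat within 30 percent, signal rise, or potency beyond limit.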
# Assay: viability loss in HeLa cells – cell-based, 24 h, cherry-picked samples, cytotoxicity control, dose response (AID 504726);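 also: 0% = DMSO neutral controls and -100% = mitoxantrone positive controls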
# Conditions: HeLa viability, CellTiter-Glo ATP luminescence, 24 h; at 35 µM (top of the series)
row,Structure (SMILES),"activity change, negative = cytotoxicity"
1,NNC(=O)C1C(O)CCC2CN3CCc4c([nH]c5ccccc45)C3CC21 (configuration not stated),-12.3% (inactive)
2,Cc1c(C)n(Cc2ccccc2)c2ncnc(Cl)c12,-17.6% (inactive)
3,NC(=O)C1(N2CCCCC2)CCN(Cc2ccc(Br)cc2)CC1,-2.98% (inactive)
4,CCN(C(=O)c1cccc(S(=O)(=O)N2CCc3ccccc32)c1)C1CCS(=O)(=O)C1 (configuration not stated),-1.74% (inactive)
5,O=C(CCCN1C(=O)/C(=C\c2ccco2)SC1=S)Nc1ccc(O)cc1C(=O)O,4.85% (inactive)
6,CSc1nc(SC(C)C(=O)O)c2c3c(sc2n1)COC(C)(C)C3 (configuration not stated),-9.35% (inactive)
7,O=C(CN1C(=O)NC2(CCCC2)C1=O)Nc1ccccc1-c1ccccc1,-3.7% (inactive)
8,CCN(CC)c1ccc2cc(S(=O)(=O)c3ccc(C)cc3)c(=O)oc2c1,-3.69% (inactive)
9,COc1ccc(NC(=O)COC(=O)c2c(-c3ccccc3)noc2C)cc1,6.45% (inactive)
10,CS(=O)(=O)c1cccc(C(=O)Oc2ccccc2)c1,5.26% (inactive)
11,CCCc1cc(C(=O)Nc2ccc(C(=O)c3ccc(C)cc3)cc2)n(C)n1,2.14% (inactive)
12,O=C1/C(=C/c2ccco2)Oc2c1ccc(O)c2CN1CCCCC1,4.96% (inactive)
13,Nc1cc(N)nc(SCC(=O)N2CCCCC2)n1,4.42% (inactive)
14,Cc1cccc(N2C(=O)c3cccc4c(N)ccc(c34)C2=O)c1,3.39% (inactive)
15,CN1CC=C2C(C#N)=C(N)C(C#N)(C#N)[C@H](c3ccoc3)[C@H]2C1,0.209% (inactive)
16,CCOC(=O)c1ccc[n+](CC(=O)c2ccc(OC)cc2)c1,-1.73% (inactive)
17,Cc1c(NC(=O)CCC2CCCCC2)cc(C(=O)N2CCOCC2)cc1[N+](=O)[O-],0.409% (inactive)
18,O=C(O)CCCCCn1c(SCC(=O)c2ccc(O)c(O)c2)nc2ccsc2c1=O,-16.5% (inactive)
19,CCOC(=O)C1=C(COC(=O)c2ccc([N+](=O)[O-])s2)NC(=O)NC1C (configuration not stated),-1% (inactive)
20,COC(=O)c1sc(C(F)(F)F)c(-c2ccccc2)c1S(=O)(=O)N1CCOCC1,-14.2% (inactive)
21,CCc1nnc(NC(=O)c2cccc(S(=O)(=O)N(C)c3ccccc3)c2)s1,-7.23% (inactive)
22,O=C(c1ccccc1)c1ccc(O)cc1O,-20.5% (inactive)

row,Structure (SMILES),"activity change, negative = cytotoxicity"
1,O=C(NC12CC3CC(CC(C3)C1)C2)N1CCN(c2ncccn2)CC1,12.9% (inactive)
2,O=c1c2c(nc3cc(-c4ccc(F)cc4)[nH]n13)CCC2,-13.7% (inactive)
3,O=C(NC1CCCCC1)c1cc([N+](=O)[O-])ccc1N1CCOCC1,-0.855% (inactive)
4,O=C(CN(Cc1ccccc1F)C(=O)c1csnn1)NCc1ccc2c(c1)OCO2,-9.28% (inactive)
5,CCOC(=O)C1C2C=CC3(CN(c4cccc(Cl)c4)C(=O)C13)O2 (configuration not stated),-5.58% (inactive)
6,COc1cccc(-c2cc(C(=O)N3CCN(S(=O)(=O)c4ccccc4)CC3)[nH]n2)c1,-17.3% (inactive)
7,CC(C)Cn1c(N)c(C(=O)CSc2nnc(-c3ccco3)n2C)c(=O)n(C)c1=O,-1.08% (inactive)
8,CN(C)C(=O)c1ccc(NC(=O)COC(=O)C2(c3ccccc3)CCCC2)cc1,-4.12% (inactive)
9,CCOc1ccccc1N1CCN(C(=O)c2ccc3nc(N)sc3c2)CC1,-19.1% (inactive)
10,O=C(OCC(=O)N1N=C(c2ccc(Cl)cc2)CC1c1ccco1)c1cccnc1 (configuration not stated),-11.7% (inactive)
11,Cc1cccc(NC(=O)CN2C(=O)NC(C)(c3ccc4ccccc4c3)C2=O)n1 (configuration not stated),-4.54% (inactive)
12,S=c1c2c(nc3nc[nH]n13)CCC2,-7.9% (inactive)
13,S=c1[nH]nc([C@@H]2C[C@H]2c2ccccc2)n1-c1ccccc1Cl,-6.51% (inactive)
14,CCCCc1ccc(C(=O)O)nc1,-11.4% (inactive)
15,O=C(O)Cc1c[nH]c2cccc(O)c12,-14.7% (inactive)
16,Cc1cc[n+](-c2[nH]c(=O)sc2/C=N/N=C(\[O-])c2ccccc2)cc1C,-3.68% (inactive)
17,CC1CC(C)(C)NC(=S)N1CC(=O)N(C)Cc1ccccc1 (configuration not stated),-2.63% (inactive)
18,O=C(O)CCN1C(=O)/C(=C\c2ccc(-c3nc4ccccc4s3)o2)SC1=S,1.33% (inactive)
19,CCOC(=O)C1Nc2ccc(C(=O)O)cc2C2C=CCC12 (configuration not stated),-9.32% (inactive)
20,COc1ccc(N(CC(=O)NCc2ccc3c(c2)OCO3)C(=O)c2csnn2)cc1,3.04% (inactive)
21,CCOc1ccc(S(=O)(=O)N(C)c2ccc(OCC(=O)NC3=NCCS3)cc2)cc1,-12.3% (inactive)
22,O=C(NCCCN1CCCC1=O)c1ccc2c(c1)ncn2C1CCCCC1,-5.77% (inactive)

row,Structure (SMILES),"activity change, negative = cytotoxicity"
1,Nc1nc(-c2ccc(C(=O)O)cc2)cs1,-2% (inactive)
2,C=CCn1c(C)cc(-c2csc(NC(=O)CCc3nc4ccccc4c(=O)[nH]3)n2)c1C,-6.5% (inactive)
3,O=C(N/N=C/c1ccc(N2CCOCC2)cc1)c1ccccn1,-14.2% (inactive)
4,CCn1c(SCc2nc3sc(C(=O)O)c(C)c3c(=O)[nH]2)nc2ccccc21,-9.24% (inactive)
5,O=C(COc1ccccc1Cc1ccccc1)NCCCN1CCOCC1,-9.39% (inactive)
6,N#CCCN(CCC#N)C(=O)C1c2ccccc2Oc2ccccc21,-3.39% (inactive)
7,COc1ccc(C(=O)N/N=C/c2ccc(OC)c(COc3ccccc3)c2)cc1,-5.44% (inactive)
8,O=C(Nc1ccccc1F)c1coc(=O)c(Br)c1,-20.2% (inactive)
9,COc1cccc(NC(=O)CN(C)C(=O)c2cc3ccccc3cc2OC)c1,6.23% (inactive)
10,Cc1cc(C)n(CCC(=O)N/N=C/c2ccc(O)cc2O)n1,-6.35% (inactive)
11,Cc1ccccc1NC(=S)NC(C)CCc1ccccc1 (configuration not stated),-9.6% (inactive)
12,Cc1nc(Cl)c2c(n1)NC1=C(O2)C(=O)CCC1,-16.2% (inactive)
13,COc1ccccc1C(=O)NCC(=O)OCC(=O)N(CC(C)C)c1c(N)n(Cc2ccccc2)c(=O)[nH]c1=O,1.22% (inactive)
14,C/C(=N\NC(=O)CCc1c(C)n[nH]c1C)c1ccc([N+](=O)[O-])cc1,6.48% (inactive)
15,CC(=O)Nc1ccc(S(=O)(=O)Nc2nc3ccccc3nc2Nc2ccc(C(=O)O)c(O)c2)cc1,-13.1% (inactive)
16,COc1cc(CN2CC(=O)N(c3cc(Cl)ccc3C)C2=S)cc(OC)c1OC,-7.61% (inactive)
17,COc1cccc(OC)c1C(=O)Nc1cc(C)on1,0.727% (inactive)
18,Cc1sc2nnn(CC(=O)N3CCN(C(=O)c4ccco4)CC3)c(=O)c2c1C,-4.76% (inactive)
19,COc1ccc(NC(=O)CO/N=C2/CCCc3nonc32)c(OC)c1,-3.9% (inactive)
20,COC(=O)C1CCN(C(=O)COC(=O)Cc2c[nH]c3ccccc23)CC1,-20.6% (inactive)
21,O=C1CCCC2=C1C(c1ccc(O)c(O)c1)Nc1ccc3ncccc3c12 (configuration not stated),-1.08% (inactive)
22,CCSc1nnc(Cc2cc(=O)[nH]c(=O)[nH]2)n1-c1ccc(F)cc1,-15.6% (inactive)

row,Structure (SMILES),"activity change, negative = cytotoxicity"
1,CN(C)CCCNC(=O)c1ccccc1Oc1ccccc1,-6.34% (inactive)
2,COc1ccc(N=C2SC(CC(=O)Nc3ccccc3)C(=O)N2Cc2ccco2)cc1 (configuration not stated),-17.3% (inactive)
3,O=C(CCNc1ccc(Cc2ccncc2)cc1)c1cccc([N+](=O)[O-])c1,-10% (inactive)
4,O=C1C=C(c2ccoc2)N2CCC[C@H]2C1,-3.65% (inactive)
5,COc1ccc(OC)c(N2C(=O)NC(=O)/C(=C\c3ccc([N+](=O)[O-])s3)C2=O)c1,-3.62% (inactive)
6,Cc1ccc(N2CC(C(=O)Nc3nnc(SCC(=O)Nc4nc(C)cs4)s3)CC2=O)cc1 (configuration not stated),-3.6% (inactive)
7,O=C(CC1CCCC1)N1CCN(S(=O)(=O)c2ccccc2)CC1,-13.4% (inactive)
8,COc1ccc(CC(=O)O/N=C(\N)c2ccc(OC)cc2)cc1,-11.5% (inactive)
9,CCn1c(CN2CCCCC2)nc2cc(S(=O)(=O)N3CCCCC3)ccc21,-13.7% (inactive)
10,CCC(Sc1ncccc1C(=O)O)C(=O)N1CCCC1 (configuration not stated),3.53% (inactive)
11,C/C(=N/NC(=O)c1ccncc1)c1cc2ccc(O)cc2oc1=O,3.38% (inactive)
12,CC(=O)OCCCn1c(C)[n+](C)c2cc(Cl)c(Cl)cc21,-14.3% (inactive)
13,COc1cccc2c1NC(C(=O)O)C1CC=CC21 (configuration not stated),-12.8% (inactive)
14,Nc1ccc2nc3c(=O)[nH]c(=S)[nH]c3nc2c1,-3.49% (inactive)
15,CCCc1nc(NCc2ccccn2)c2nnn(Cc3ccccc3F)c2n1,-9.25% (inactive)
16,CC(Cc1ccccc1)NC(=O)NC(C)Cc1ccccc1 (configuration not stated),-7.16% (inactive)
17,COc1ccc(NC(=O)NS(=O)(=O)c2ccc(C)cc2)cn1,-5.07% (inactive)
18,CC(C)CCN1C(=O)c2cccc3c(N)ccc(c23)C1=O,-14.7% (inactive)
19,Cc1cc2nc(SCCN3CCOCC3)[nH]c2cc1C,-23.1% (inactive)
20,COC(=O)C1=C(N)OC2=C(C(=O)CCC2)C1c1cccs1 (configuration not stated),-5.56% (inactive)
21,Brc1c(CSc2nncc3ccccc23)nc2ccccn12,-1.12% (inactive)
